Data: PubChem BioAssay (NCI)
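Cells were grown in 96-well plates and exposed to each compound for 48 hours at five concentrations; endpoints were interpolated linearly between bracketing concentrations, or set to the highest concentration if not reached. GI50 marks 50% less growth. TGI: concentration producing complete growth inhibition.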

What was measured:
Experiment in all cases: DTP human tumour cell line panel, 48 h
MOLT-4 leukemia = system: MOLT-4 leukemia
SF-295 CNS = system: SF-295 CNS
SW-620 colon = system: SW-620 colon
HT29 colon = system: HT29 colon
DU-145 prostate = system: DU-145 prostate
OVCAR-4 ovarian = system: OVCAR-4 ovarian
COLO 205 colon = system: COLO 205 colon
NCI-H460 lung = system: NCI-H460 lung

COc1cc(CNC(=S)CCCCCCCCCCC(C)C)ccc1O
TGI (MOLT-4 leukemia): > 100 µM
TGI (SF-295 CNS): > 100 µM
TGI (SW-620 colon): > 100 µM
TGI (HT29 colon): > 100 µM
TGI (DU-145 prostate): > 100 µM
TGI (OVCAR-4 ovarian): > 100 µM
TGI (COLO 205 colon): > 100 µM
TGI (NCI-H460 lung): > 100 µM

CCOC(=O)CCC(NC(=O)OCc1ccccc1)C(=O)NC(CCC(=O)OCC)C(=O)NC(CCC(=O)OCC)C(=O)NNC(=O)OC(C)(C)C (configuration not stated)
TGI (MOLT-4 leukemia): > 100 µM
TGI (SW-620 colon): > 100 µM
TGI (HT29 colon): > 100 µM
TGI (COLO 205 colon): > 100 µM
TGI (NCI-H460 lung): > 100 µM

CC(C)(Cc1ccccc1)N1C(=O)N1C(C)(C)Cc1ccccc1
TGI (MOLT-4 leukemia): 55.6 µM
TGI (SW-620 colon): > 100 µM
TGI (HT29 colon): 32.9 µM
TGI (DU-145 prostate): > 100 µM
TGI (OVCAR-4 ovarian): > 100 µM
TGI (COLO 205 colon): 77.8 µM
TGI (NCI-H460 lung): > 100 µM

Cc1nc2cccc(F)c2c(=O)n1-c1nnc(C(F)(F)F)s1
TGI (MOLT-4 leukemia): > 10 µM
TGI (SF-295 CNS): > 10 µM
TGI (SW-620 colon): > 10 µM
TGI (HT29 colon): > 10 µM
TGI (DU-145 prostate): > 10 µM
TGI (OVCAR-4 ovarian): > 10 µM
TGI (COLO 205 colon): > 10 µM
TGI (NCI-H460 lung): > 10 µM

CCN(CCCl)c1cccc(NC(=O)c2ccc(C(=O)Nc3cccc(CN(C)C)c3)cc2)c1
TGI (MOLT-4 leukemia): 1.15 µM
TGI (SF-295 CNS): 13.2 µM
TGI (SW-620 colon): 11.9 µM
TGI (DU-145 prostate): 12.2 µM
TGI (OVCAR-4 ovarian): 0.611 µM
TGI (COLO 205 colon): 0.24 µM
TGI (NCI-H460 lung): 1.36 µM

CC(C#N)N(CCc1ccccc1)C(=O)c1ccccc1 (configuration not stated)
TGI (MOLT-4 leukemia): > 100 µM
TGI (SF-295 CNS): > 100 µM
TGI (SW-620 colon): > 100 µM
TGI (HT29 colon): > 100 µM
TGI (DU-145 prostate): > 100 µM
TGI (OVCAR-4 ovarian): > 100 µM
TGI (COLO 205 colon): > 100 µM

NNC(=O)Cn1ccnn1
TGI (MOLT-4 leukemia): > 100 µM
TGI (SF-295 CNS): > 100 µM
TGI (SW-620 colon): > 100 µM
TGI (HT29 colon): > 100 µM
TGI (DU-145 prostate): > 100 µM
TGI (COLO 205 colon): > 100 µM
TGI (NCI-H460 lung): > 100 µM

COC(=O)c1cc(C)ccc1C1CN=NC12Cc1c(C)cc(C)cc1C2=O (configuration not stated)
TGI (MOLT-4 leukemia): 56.2 µM
TGI (SF-295 CNS): 97.4 µM
TGI (SW-620 colon): > 100 µM
TGI (HT29 colon): 45.8 µM
TGI (DU-145 prostate): > 100 µM
TGI (OVCAR-4 ovarian): 80 µM
TGI (COLO 205 colon): 31.4 µM
TGI (NCI-H460 lung): 42.7 µM

CCN(CC)C1Oc2cc3c(cc2C(c2cc(OC)c(OC)c(OC)c2)C1C)OCO3 (configuration not stated)
TGI (MOLT-4 leukemia): 13.1 µM
TGI (SF-295 CNS): 10 µM
TGI (SW-620 colon): > 63.1 µM
TGI (HT29 colon): 9.95 µM
TGI (DU-145 prostate): > 91.4 µM
TGI (OVCAR-4 ovarian): > 100 µM
TGI (COLO 205 colon): 4.8 µM
TGI (NCI-H460 lung): 22.5 µM

COc1cccc(NC(=O)CC(=O)N2N=C(C)C(N=Nc3ccc(C(=O)O)cc3)C2=O)c1 (configuration not stated)
TGI (SF-295 CNS): > 100 µM
TGI (SW-620 colon): > 100 µM
TGI (HT29 colon): > 100 µM
TGI (DU-145 prostate): > 100 µM
TGI (OVCAR-4 ovarian): > 100 µM
TGI (COLO 205 colon): > 100 µM

O=[N+]([O-])c1cc(F)ccc1Sc1ccccc1
TGI (MOLT-4 leukemia): > 10 µM
TGI (SF-295 CNS): > 10 µM
TGI (SW-620 colon): > 10 µM
TGI (HT29 colon): > 10 µM
TGI (DU-145 prostate): > 10 µM
TGI (OVCAR-4 ovarian): > 10 µM
TGI (COLO 205 colon): > 10 µM
TGI (NCI-H460 lung): > 10 µM

C=C(C)[C@@H]1CC[C@]2(CO)CC[C@]3(C)[C@H](CC[C@@H]4[C@@](C)(CCCN)[C@H](C(=C)C)CC[C@]43C)[C@@H]12
GI50 (SW-620 colon): 1.75 µM
TGI (SW-620 colon): 3.51 µM
GI50 (HT29 colon): 1.58 µM
TGI (HT29 colon): 3.77 µM
GI50 (DU-145 prostate): 1.68 µM
TGI (DU-145 prostate): 3.06 µM
GI50 (COLO 205 colon): 1.63 µM
TGI (COLO 205 colon): 3.34 µM
GI50 (NCI-H460 lung): 1.65 µM
TGI (NCI-H460 lung): 3.24 µM

NC1c2c(Cl)sc(Cl)c2C(=O)C1O (configuration not stated)
TGI (MOLT-4 leukemia): 57.5 µM
TGI (SF-295 CNS): > 100 µM
TGI (SW-620 colon): 50.5 µM
TGI (HT29 colon): 33.9 µM
TGI (DU-145 prostate): > 100 µM
TGI (OVCAR-4 ovarian): 50.4 µM
TGI (COLO 205 colon): 44.4 µM
TGI (NCI-H460 lung): > 100 µM

CC(=O)O[C@H]1CCC2[C@@H]3CCC4NC(=O)C(C#N)C[C@]4(C)C3CC[C@@]21C (some centres not stated)
TGI (MOLT-4 leukemia): > 10 µM
TGI (SF-295 CNS): > 10 µM
TGI (SW-620 colon): > 10 µM
TGI (HT29 colon): > 10 µM
TGI (DU-145 prostate): > 10 µM
TGI (OVCAR-4 ovarian): > 10 µM
TGI (COLO 205 colon): > 10 µM
TGI (NCI-H460 lung): > 10 µM

Cc1c(C#N)c(=N)oc2ccccc12
TGI (MOLT-4 leukemia): > 100 µM
TGI (SF-295 CNS): > 100 µM
TGI (SW-620 colon): > 100 µM
TGI (HT29 colon): > 100 µM
TGI (DU-145 prostate): > 100 µM
TGI (OVCAR-4 ovarian): > 100 µM
TGI (COLO 205 colon): > 100 µM
TGI (NCI-H460 lung): > 100 µM

C[PH+](c1nc2ccccc2nc1[PH+](C)C(C)(C)C)C(C)(C)C.C[PH+](c1nc2ccccc2nc1[PH+](C)C(C)(C)C)C(C)(C)C.[Au+].[Cl-] (configuration not stated)
GI50 (SW-620 colon): 0.0356 µM
TGI (SW-620 colon): 1.18 µM
GI50 (HT29 colon): 0.0294 µM
GI50 (DU-145 prostate): 0.0401 µM
TGI (DU-145 prostate): 0.374 µM
GI50 (OVCAR-4 ovarian): 0.0349 µM
TGI (OVCAR-4 ovarian): 0.77 µM
GI50 (COLO 205 colon): 0.0198 µM
TGI (COLO 205 colon): 0.0442 µM

COC1(OC)C=CC(=O)C=C1
TGI (MOLT-4 leukemia): > 95.2 µM
TGI (SF-295 CNS): 23.9 µM
TGI (SW-620 colon): 3.12 µM
TGI (HT29 colon): 12.1 µM
TGI (DU-145 prostate): 12.6 µM
TGI (OVCAR-4 ovarian): 16.7 µM
TGI (COLO 205 colon): 28.1 µM
TGI (NCI-H460 lung): 19.7 µM

COc1cc2oc(=O)cc(C)c2cc1OC
TGI (MOLT-4 leukemia): > 100 µM
TGI (SF-295 CNS): > 100 µM
TGI (SW-620 colon): > 100 µM
TGI (HT29 colon): > 100 µM
TGI (DU-145 prostate): > 100 µM
TGI (OVCAR-4 ovarian): > 100 µM
TGI (COLO 205 colon): > 100 µM

COC(=O)c1cc(C)ccc1/C=C1\Cc2c(C)cc(C)cc2C1=O
TGI (MOLT-4 leukemia): > 100 µM
TGI (SF-295 CNS): 33.1 µM
TGI (SW-620 colon): > 100 µM
TGI (HT29 colon): > 100 µM
TGI (DU-145 prostate): > 100 µM
TGI (OVCAR-4 ovarian): > 100 µM
TGI (COLO 205 colon): > 100 µM
TGI (NCI-H460 lung): > 100 µM

Clc1nc2c(C#Cc3ccccc3)ncnc2n1C1CCCCO1 (configuration not stated)
TGI (MOLT-4 leukemia): 51.2 µM
TGI (SF-295 CNS): 54.4 µM
TGI (SW-620 colon): 55.3 µM
TGI (HT29 colon): 27.6 µM
TGI (DU-145 prostate): 63.2 µM
TGI (OVCAR-4 ovarian): 35.9 µM
TGI (COLO 205 colon): 32.7 µM
TGI (NCI-H460 lung): 39.6 µM

CC1CN=C(c2ccc(-c3nc(-c4ccc(C5=NCC(C)N5)cc4)nc(N(C)C)n3)cc2)N1 (configuration not stated)
TGI (MOLT-4 leukemia): 3.79 µM
TGI (SF-295 CNS): 15.8 µM
TGI (SW-620 colon): 5.56 µM
TGI (HT29 colon): 7.33 µM
TGI (DU-145 prostate): 5.59 µM
TGI (OVCAR-4 ovarian): 3.67 µM
TGI (COLO 205 colon): 2.38 µM
TGI (NCI-H460 lung): 11.1 µM

COc1cccc(C23CCCC(C2)N(C)CC3OC(=O)c2ccccc2)c1OC (configuration not stated)
TGI (MOLT-4 leukemia): 60.3 µM
TGI (SF-295 CNS): 77.7 µM
TGI (SW-620 colon): > 100 µM
TGI (HT29 colon): 43.3 µM
TGI (DU-145 prostate): > 100 µM
TGI (OVCAR-4 ovarian): > 100 µM
TGI (COLO 205 colon): 29 µM
TGI (NCI-H460 lung): > 100 µM

N#Cc1c(N2CCN(c3ccc([N+](=O)[O-])cc3)CC2)[n+](=O)c2ccc(-c3ccc([N+](=O)[O-])cc3)cc2n1[O-]
TGI (MOLT-4 leukemia): > 100 µM
TGI (SF-295 CNS): > 100 µM
TGI (SW-620 colon): > 100 µM
TGI (HT29 colon): > 100 µM
TGI (DU-145 prostate): > 100 µM
TGI (OVCAR-4 ovarian): > 100 µM
TGI (COLO 205 colon): > 100 µM
TGI (NCI-H460 lung): > 38.3 µM

COc1cc(S(=O)(=O)Nc2ccc(-c3csc(/N=C\c4ccccc4)n3)cc2)ccc1Cl
TGI (MOLT-4 leukemia): 52.1 µM
TGI (SF-295 CNS): > 100 µM
TGI (SW-620 colon): > 100 µM
TGI (HT29 colon): > 100 µM
TGI (DU-145 prostate): > 100 µM
TGI (OVCAR-4 ovarian): > 100 µM
TGI (COLO 205 colon): > 100 µM

COC(=O)C1CC23C=CCN4CC(C2C)C2(c5ccccc5NC12)C43 (configuration not stated)
TGI (MOLT-4 leukemia): > 100 µM
TGI (SF-295 CNS): > 100 µM
TGI (SW-620 colon): > 100 µM
TGI (HT29 colon): > 100 µM
TGI (DU-145 prostate): > 100 µM
TGI (OVCAR-4 ovarian): > 100 µM
TGI (COLO 205 colon): > 100 µM
TGI (NCI-H460 lung): > 100 µM
